Assay results from BindingDB's records for doi:10.1021/jm0704595 (University of Turin, 2007).
Where “and” joins values, the source holds several entries; their conditions need not be identical. Identical values can stand only once.

Test: Agonist activity at adrenergic beta2 receptor in guinea pig tracheal rings assessed as myorelaxing activity on carbachol-induced contraction in presence of propranolol

Cc1c(COc2ccc(CC(C)NCC(O)c3cc(O)cc(O)c3)cc2)no[n+]1[O-] (stereo unspecified) [5-(1-hydroxy-2-{1-methyl-2-[4-(4-methyl-5-oxy-furazan-3-ylmethoxy)-phenyl]-ethylamino}-ethyl)-benzene-1,3-diol]
EC50: 55 µM and 54 µM
